According to ChEMBL document CHEMBL2163261, “Anti-HIV-1 activity of resveratrol derivatives and synergistic inhibition of HIV-1 by the combination of resveratrol and decitabine” (Bioorg Med Chem Lett, 2012):

What was measured:
[1] = Selectivity index, ratio of TC50 for human U373-MAGI cells to EC50 for human U373-MAGI cells infected with HIV1; format: toxicity, cell-based; settings: read-out: Selectivity Index
[2] = Cytotoxicity against human U373-MAGI cells expressing CXCR4; format: cell-based; settings: read-out: TC50 (the source's name)
[3] = tested on: Human immunodeficiency virus 1; assay: Antiviral activity against HIV1 infected in human U373-MAGI cells expressing CXCR4 assessed as inhibition of viral infection preincubated for 2 hrs prior to infection followed by compound wash out measured after 48 hrs by single round replication assay; format: functional, organism-based; settings: for EC50: Human immunodeficiency virus 1, U373-MAGI
[4] = tested on: Human immunodeficiency virus 1; assay: Antiviral activity against HIV1 infected in human U373-MAGI cells expressing CXCR4 assessed as infected host cells at 6 uM preincubated for 2 hrs prior to infection followed by compound wash out measured after 48 hrs by single round replication assay; format: functional
[5] = tested on: Human immunodeficiency virus 1; assay: Antiviral activity against HIV1 infected in human U373-MAGI cells expressing CXCR4 assessed as frequency of viral mutagenesis at 6 uM preincubated for 2 hrs prior to infection followed by compound wash out measured after 48 hrs by flow cytometry relative to control; format: functional
[6] = tested on: Human immunodeficiency virus 1; assay: Antiviral activity against HIV1 infected in human U373-MAGI cells expressing CXCR4 assessed as frequency of viral mutagenesis at 70 nM preincubated for 2 hrs prior to infection followed by compound wash out measured after 48 hrs by flow cytometry relative to control; format: functional
[7] = tested on: Human immunodeficiency virus 1; assay: Antiviral activity against HIV1 infected in human U373-MAGI cells expressing CXCR4 assessed as infected host cells at 70 nM preincubated for 2 hrs prior to infection followed by compound wash out measured after 48 hrs by single round replication assay; format: functional
[8] = tested on: Human immunodeficiency virus 1; assay: Antiviral activity against HIV1 infected in human U373-MAGI cells expressing CXCR4 assessed as frequency of viral mutagenesis at 30 uM preincubated for 2 hrs prior to infection followed by compound wash out measured after 48 hrs by flow cytometry relative to control; format: functional
[9] = tested on: Human immunodeficiency virus 1; assay: Antiviral activity against HIV1 infected in human U373-MAGI cells expressing CXCR4 assessed as infected host cells at 30 uM preincubated for 2 hrs prior to infection followed by compound wash out measured after 48 hrs by single round replication assay; format: functional
[10] = tested on: Human immunodeficiency virus 1; assay: Antiviral activity against HIV1 infected in human U373-MAGI cells expressing CXCR4 assessed as frequency of viral mutagenesis at 20 uM preincubated for 2 hrs prior to infection followed by compound wash out measured after 48 hrs by flow cytometry relative to control; format: functional
[11] = tested on: Human immunodeficiency virus 1; assay: Antiviral activity against HIV1 infected in human U373-MAGI cells expressing CXCR4 assessed as infected host cells at 20 uM preincubated for 2 hrs prior to infection followed by compound wash out post infection measured after 48 hrs by single round replication assay; format: functional

Row | EC50 [3] [µM] | SMILES | selectivity ratio [1] | CC50 [2] [µM] | Activity [3] | further results
1 | > 75 | Oc1cc(O)cc(-c2ccc3cc(O)ccc3c2)c1 |  |  |  | 
2 | > 75 | O=C(/C=C/c1ccc(O)cc1)c1cc(O)cc(O)c1 |  |  |  | 
3 | > 75 | Oc1ccc(-n2cc(-c3cc(O)cc(O)c3)nn2)cc1 |  |  |  | 
4 | > 75 | Oc1cc(O)cc(-c2ccc3cnccc3c2)c1 |  |  |  | 
5 | > 75 | Oc1ccc(-c2cc(-c3cc(O)cc(O)c3)on2)cc1 |  |  |  | 
6 | > 75 | Oc1ccc(-c2cnc(-c3cc(O)cc(O)c3)nc2)cc1 |  |  |  | 
7 |  | Nc1ncn([C@H]2C[C@H](O)[C@@H](CO)O2)c(=O)n1 [DECITABINE] |  |  |  | Ratio [6]: 1.26; Activity [7]: 93%
8 | > 75 | Cn1c(-c2ccc(O)cc2)ccc1-c1cc(O)cc(O)c1 |  |  |  | 
9 | > 100 | Oc1cc(O)cc(-c2ccc(-c3ccncc3)cc2)c1 |  |  |  | 
10 | > 75 | Oc1ccc(-c2ncc(-c3cc(O)cc(O)c3)cn2)cc1 |  |  |  | 

Row | SMILES | EC50 [3] [µM] | selectivity ratio [1] | CC50 [2] [µM] | Activity [3] | further results
11 | Oc1ccc(-c2c(-c3cc(O)cc(O)c3)sc3ccccc23)cc1 | 34.4 | 3.8 | 131 | Dose-dependent effect | 
12 | Oc1ccc(-c2ccc(-c3cc(O)cc(O)c3)cc2)cc1 | 8.8 | 20.3 | 179 | Dose-dependent effect | Activity [4]: 96%; Ratio [5]: 1.1
13 | Oc1ccc(-c2c(-c3cc(O)cc(O)c3)oc3ccccc23)cc1 | 35 | 2.4 | 84.8 | Dose-dependent effect | 
14 | Oc1ccc(-c2oc3ccccc3c2-c2cc(O)cc(O)c2)cc1 | 65.1 | 1.5 | 108 | Dose-dependent effect | 
15 | Oc1cc(O)cc(/C=C/c2ccc(O)c(O)c2)c1 [PICEATANNOL] | 21.4 | > 18.7 | > 400 | Dose-dependent effect | Activity [4]: 88%; Ratio [5]: 1.16
16 | Oc1ccc(-c2sc3ccccc3c2-c2cc(O)cc(O)c2)cc1 | 45.1 | 2.6 | 118 | Dose-dependent effect | Ratio [8]: 1.08; Activity [9]: 99%
17 | Oc1ccc(/C=C/c2cc(O)cc(O)c2)cc1 [RESVERATROL] | > 75 |  | > 300 | Dose-dependent effect | Ratio [10]: 1.08; Activity [11]: 91%
